Source: patent US20230124374A1, “COMPOSITIONS AND METHODS FOR EYE HEALTH COMPRISING VERY LONG CHAIN FATTY ACIDS” (BAUSCH + LOMB IRELAND LIMITED, priority 2020, published 2023)
One block for each compound: values may come before it.

Key:
[1] = phospholipid analysis of retina and RPE by LC-MS/MS after 15 days of gavage feeding; type: in vivo, WT mice; conditions: 15 days gavage, 2 mg/day, supplemented WT animals
Method: FIGS. 3A and 3B show phospholipid analysis of wild type (WT) mice after 15 days of gavage feeding of VLCPUFA 32:6n-3 (2 mg/day): (3A) Retina and (3B) RPE. Data presented as mean±SEM (n=8 mice/group) (p values: *p<0.05; N.S.: not significant; N.D.: not detectable).
(§1) Retina and RPE were extracted for phospholipid analysis using liquid chromatography-tandem MS (LC-MS/MS), and increases in phosphatidylcholine (PC)-22:6/32:6 were detected in the retina and RPE in the supplemented WT animals (FIGS. 3A and 3B). Retinal and RPE 32:6 n-3 levels in the E4cKO mice were one-third and one-half of the levels in the age-matched WT mice, respectively (FIG. 4A).

[2] = single-dose bioavailability study, gavage feeding of 32:6 n-3 loaded liposomes, GC-MS of tissue lipids; type: in vivo, wild-type (WT) C57BL/6J mice
Method: FIGS. 1A and 1B show wild-type (WT) mice single-dose bioavailability studies: (1A) Serum absorption kinetics of C32 acid (6n-3) (“32:6n-3”) after single-dose gavage feeding of 6 mg/mouse (n=4 mice/time point) and (1B) retina and RPE uptake of 32:6 n-3 after single-dose gavage feeding. No VLCPUFAs were detected in liver, brain, or RBC membranes at any time point. Data are presented as mean±SEM (***P<0.005; **P<0.01; *P<0.05).
Three month old wild-type (WT) C57BL/6J mice (22±3 g) were each gavage fed 6 mg per day of C32 acid (6n-3) (“32:6 n-3”) loaded VLCPUFA liposomes (0.1 mL) (250 mg/kg body weight) prepared as disclosed in Gorusupudi et al. PNAS 118(6), e2017739118 (2021), which is incorporated herein by reference in its entirety. The mice were killed 0, 2, 4, 8, and 24 h after gavage (n=4 mice/time interval) to harvest the blood and other tissues. Eyes were dissected under a microscope to separate the retina from the RPE. One pair of retinas/mouse was used for lipid extraction, and blood was centrifuged for 5 minutes at 7,500 rpm to separate serum from RBCs. Serum, RBCs, brain, liver, retina, and RPE were used for lipid extractions and GC-MS analysis.
(§2) On the other hand, 32:6 n-3 remained undetectable in liver, brain, and red blood cell (RBC) membranes throughout the 24 h period. Longer-term absorption was studied by gavage feeding VLCPUFA-loaded liposomes (0.1 mL) to WT (22±3 g) and conditional KO mice developed with an intention to ablate Elov14 expression completely in both rods and cones (E4cKO mice) (23±3 g) for 15 d with 0, 1, and 2 mg/d 32:6 n-3 (n=6 mice/group). Mice were fed each morning with liposomes prepared as above containing 0 mg/d (0 mg/kg BW), 1 mg/d (40 mg/kg BW), or 2 mg/d (80 mg/kg BW) of 32:6 n-3. Mice were killed at the end of the experiments, and retina, RPE, liver, serum, RBCs, and brain tissues were harvested, extracted for lipids, and analyzed by GC-MS.

[3] = repeated-dose (15 d) bioavailability study, gavage feeding of 32:6 n-3 loaded liposomes, GC-MS of tissue lipids; type: in vivo, WT mice; conditions: 15 d gavage
Method: FIGS. 2A and 2B show WT mice repeated-dose bioavailability studies: (2A) Accumulation of 32:6 n-3 in mouse retina and RPE after 15 d of gavage feeding (n=6 mice/group) and (2B) Bioaccumulation of 32:6n-3 in serum, RBC, and liver after 15 d of gavage feeding. […] Data are presented as mean±SEM (***P<0.005; **P<0.01; N.S.: not significant; N.D.: not detectable).
as §2

[4] = long-term uptake of 32:6 n-3 in Elov14 rod-cone conditional KO mice, 15 d gavage feeding; type: in vivo, E4cKO mice; conditions: 2 mg/d
Method: FIGS. 4A and 4B show long-term uptake of 32:6n-3 (2 mg/d per mouse) in Elov14 rod-cone conditional KO (E4cKO) mice: (4A) Accumulation of 32:6 n-3 in E4cKO mouse retinas and RPE in comparison to age-matched WT mice after 15 d of gavage feeding (n=6 mice/group) and (4B) Accumulation of 32:6n-3 in liver and RBCs in E4cKO mice in comparison to age-matched WT mice after 15 d of gavage feeding. Data are presented as mean±SEM (**P<0.01; N.S.: not significant; N.D.: not detectable).
as §2, §1

[5] = levels as high as 800.0 mg; cited from earlier work
[6] = single gavage dose 6 mg/mouse, 4 to 8 h after gavage
[7] = single gavage dose 6 mg/mouse, throughout the 24 h period
[8] = 32:6 n-3-fed groups versus control mice (undetectable)
[9] = versus undetectable levels at 0 mg/d

phosphatidylcholine (PC)-22:6/32:6 in the RPE [1]: increases
phosphatidylcholine (PC)-22:6/32:6 in the retina [1]: increases
time after oral administration at which serum 32:6 n-3 became detectable ([2]; single gavage dose 6 mg/mouse (250 mg/kg), serum): ≤ 2 h
32:6 n-3 in the RPE [2, 6]: significant increase
32:6 n-3 in the retina [2, 6]: significant increase
32:6 n-3 in brain [2, 7]: undetectable
32:6 n-3 in liver [2, 7]: undetectable
32:6 n-3 in red blood cell (RBC) membranes [2, 7]: undetectable
VLCPUFAs in the brain [3]: no VLCPUFAs were ever detectable
total retinal VLCPUFAs ([3]; 1 mg/d group): 0.535±0.06%
total retinal VLCPUFAs ([3]; 2 mg/d group): 0.872±0.10%
32:6 n-3 in the liver ([3]; 2 mg/d group (only group with detectable levels)): detectable
RBC VLCPUFAs [3, 8]: significantly increased
serum VLCPUFAs [3, 8]: significantly increased
increase of C32 acid (6n-3) level in RPE versus 0 mg/d controls ([3]; both fed groups (1 and 2 mg/d)): sevenfold
increase of C32 acid (6n-3) level in the retina versus 0 mg/d controls ([3]; both fed groups (1 and 2 mg/d)): more than twofold
increase of 32:6 n-3 level in the retina relative to control-fed E4cKO mice ([4]; 8-mo-old E4cKO mice, P<0.01): nearly fivefold increase
increase of 32:6 n-3 level in the RPE relative to control-fed E4cKO mice ([4]; 8-mo-old E4cKO mice, P=0.001): 27 fold
total retinal VLCPUFAs ([4]; E4cKO mice): 0.088±0.02%
RBC 32:6 n-3 [4, 9]: became detectable
liver 32:6 n-3 [4, 9]: became detectable
Compound: CC/C=C\C/C=C\C/C=C\C/C=C\C/C=C\C/C=C\CCCCCCCCCCCCC(=O)O [32:6 n-3, C32 acid (6n-3)]
serum 32:6 n-3 concentration course ([2]; single gavage dose 6 mg/mouse, serum, over the next 24 h): reached a lower steady-state concentration

Compound: vitamin E
adverse effects [5]: No adverse effects
